Results published in patent US20140349962A1, “RAPID TWO-STEP SYNTHESIS OF ANTI-COAGULANTS” (Massachusetts Institute of Technology, priority 2013, published 2014).

Assays:
[1] = molecular target: PF4 (Homo sapiens, UniProt P02776); settings: expected because compound is free of 2-O sulfated iduronic acid residues
[2] = test system: Human factor Xa; settings: approximately; heparin-dependent factor Xa inhibition, commercial heparin as standard
Protocol: Human factor Xa (10.4 mg/ml 50% glycerol, 820 units/mg) (Hematologic Technologies, Essex Junction, Vt.) was used for assay. Factor Xa was diluted 1:200 with PBS containing 1 mg of bovine serum albumin (4 units/ml and 15 units/ml, respectively). ATIII (2.5 mg/ml) (GlycoMed, CA) was diluted 1:200 to give a 2×10^7 M stock solution. The chromogenic substrate S-2765 was from Chromogenix (West Chester, Ohio) and the stock solution of 1 mM with 1 mg/ml Polybrene in water was prepared. Heparin (174 international units/mg, Sigma) was used as a standard. The N-deacetylated N-sulfated polysaccharide product was used for factor Xa studies (10 ng). The protocol involved adding 25 μl of ATIII (2×10 7 M) to 25 μl of a serial dilution of heparin standards or N-deacetylated N-sulfated polysaccharide in Tris-EDTA (50 mM Tris, 7.5 mM EDTA, and 175 mM NaCl (pH 8.4)) buffer. The reaction was incubated at 37° C. for 75 seconds. Factor Xa (25 μl, 4 units/ml) was added. After incubating at 37° C. for 195 seconds, 25 μl of S-2765 was added. The absorbance at 405 nm was read every minute for 10 minutes using a Beckman UV spectrometer.

[3] = molecular target: anti-thrombin III (ATIII) (Homo sapiens, UniProt P01008); settings: compared to in vitro modified commercial heparin
anti-thrombin III (ATIII), sequence (P01008 33-464, species assumed): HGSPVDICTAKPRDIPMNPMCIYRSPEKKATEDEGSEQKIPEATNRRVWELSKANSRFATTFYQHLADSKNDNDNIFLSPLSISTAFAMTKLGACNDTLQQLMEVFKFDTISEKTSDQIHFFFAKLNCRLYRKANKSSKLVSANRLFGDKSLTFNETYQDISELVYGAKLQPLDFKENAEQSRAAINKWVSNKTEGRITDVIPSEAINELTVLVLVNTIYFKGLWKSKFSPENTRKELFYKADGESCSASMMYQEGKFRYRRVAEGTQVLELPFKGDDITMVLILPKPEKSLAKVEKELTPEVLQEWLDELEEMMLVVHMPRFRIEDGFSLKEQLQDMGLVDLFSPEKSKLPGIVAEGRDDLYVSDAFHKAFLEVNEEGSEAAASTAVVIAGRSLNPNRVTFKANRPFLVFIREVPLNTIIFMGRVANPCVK
Protocol: PAP^35S-radiolabeled N-deacetylate N-sulfate derivatives of non-sulfated N-acetyl heparosan (HS) polysaccharides (10, 000 counts) was reacted with […] ATIII. Complex formation was analyzed by non-denaturing gel electrophoresis (4% polyacrylamide). The mobility of radiolabeled N-deacetylate N-sulfate derivatives of non-sulfated N-acetyl heparosan (HS) polysaccharides was compared with and without ATIII.
Heparin-ATIII binding buffer contained 12% glycerol, 20 mM Tris-HCl (pH 7.9), 100 mM KCl, 1 mM EDTA, and 1 mM DTT. For a typical 20 μl binding reaction, radiolabeled polysaccharide (10,000 cpm) was mixed with AT-III (1 μg) in the binding buffer. The reaction mixture was incubated at room temperature (23° C.) for 20 min and was then applied to a 4.5% native polyacrylamide gel (with 0.1% of bis-acrylamide). The gel buffer was 10 mM Tris (pH 7.4) and 1 mM EDTA, and the electrophoresis buffer was 40 mM Tris (pH 8.0), 40 mM acetic acid, 1 mM EDTA. The gel was run at 6 volts/cm for 1-2 hours with an SE 250 Mighty Small II gel apparatus (Hoefer Scientific Instruments, San Francisco). After electrophoresis, the gel was transferred to 3 MM paper and dried under vacuum. The dried gel was autoradiographed by a PhosphorImager 445S1 (Molecular Dynamics, Sunnyvale, Calif.). The image was analyzed with NIH Image 1.60 and band intensities were evaluated.

PF4, sequence (P02776 32-101): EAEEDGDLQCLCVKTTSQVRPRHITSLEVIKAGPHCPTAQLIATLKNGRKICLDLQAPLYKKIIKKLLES

N-deacetylate N-sulfate derivatives of non-sulfated N-acetyl heparosan (HS) polysaccharide [Formula I]
ability to bind to PF4 [1]: reduced ability to bind to PF4
specific activity relative to commercial heparin [2]: 4-5 times
percentage of compound bound to ATIII compared to commercial heparin [3]: greater percentage
